Converted amounts (≈) assume the structure as drawn. Where two headings read alike, the source gives them in different places. Positions of bridges follow the written chain, without caps; N, C: chain ends. Non-standard residues stand in square brackets, D forms with d. Residues, ends and D or L forms follow the SMILES beside them. Chains are numbered I, II in the order given. No end group written: not given here. Ahx = NCCCCCC(=O)O
Experiments:
C. albicans 256 HUSI-PUJ [1] = format: cell-based, Candida albicans; conditions: for MFC: 24 h; for MIC: 48 h
Procedure: (§1) Antifungal susceptibility testing was carried out using the broth microdilution (BMD) method, following the CLSI M27-A3 guidelines with slight modifications. Briefly, cells (0.5–2.5 × 10^3 CFU/mL) were incubated with peptides (200, 100, 50, 25, 12.5, and 6.25 µg/mL) at 37 °C for 48 h. MICs were visualized and densitometry (595 nm, microplate reader, Bio-Rad, ᵢMark^TM) was used to determine the lowest concentration of peptide that caused a significant decrease (MIC/2 or ≥50%) compared with the growth control (cells incubated in absence of peptide) (n = 3). In order to verify that the peptides were able to kill the yeast cells, the plates were also evaluated for minimum fungicidal concentration (MFC). Briefly, aliquots from each well from susceptibility testing assays were transferred to plates containing Sabouraud dextrose agar (SDA), which were then incubated at 37 °C for 24 h. The highest dilution with no growth on the agar plate was considered to be the MFC.

C. albicans ATCC SC5314 [2] = format: cell-based, Candida albicans
Procedure: as §1

C. albicans 256 = format: cell-based, Candida albicans; conditions: for Inhibition of growth: 256, 48 h; for Time-kill result: Fungicide concentration / Time-kill result: Fungistatic concentration: after 48 h of incubation, RPMI 1640, 37 °C, Bioscreen C
Procedure: (§2) A time-kill kinetic assay was carried out according to the method previously described by Pfaller and coworkers with minor modifications. The peptides (C5, C6, C8, and C9) diluted in RPMI were tested at a range of concentrations: 0 (control), 0.2, 0.5, 1, and 2 times the MIC value for each strain. The isolates were subcultured on SBD, and then an inoculum was adjusted to a 0.5–2.5 × 10^3 CFU/mL in an RPMI 1640 medium. Yeast inoculum (150 uL) was added to a 100-well plate containing serial dilutions of the peptides. The plates were incubated with agitation at 37 °C in a plate reader (Bioscreen C MBR automated turbidometric analyzer, Growth Curves Ltd., Helsinki, Finland), which takes hourly absorbance readings. Moreover, fluconazole MICs were used as a control. The readings were analyzed with Bioscreen software (Growth Curves USA, Piscataway, NJ, USA) and GraphPad Prism 8.0.1 (GraphPad Soft-ware, San Diego, CA, USA). Statistical comparisons were made using an analysis of variance (two-way ANOVA) followed by a Tukey–Kramer post hoc test. P values less than 0.005 were considered significant. […] Moreover, previously determined FLC MICs (data not shown) were used as a control.

C. albicans SC5314 = format: cell-based, Candida albicans; conditions: for Inhibition of growth: SC5314, 48 h; for Time-kill result: Fungicide concentration / Time-kill result: Fungistatic concentration: after 48 h of incubation, RPMI 1640, 37 °C, Bioscreen C
Procedure: as §2

human red blood cells = test system: human red blood cells; parameters: method as in PMID 33369144; conditions: cited from earlier work
C. albicans 256 HUSI-PUJ [3] = format: cell-based, Candida albicans; conditions: for MICa: MIC of the chimeric peptide alone: 256 HUSI-PUJ
Procedure: (§3) The in vitro interactions between the peptides (C6, C8, and C9) and the FLC drug were evaluated in a checkerboard assay, as previously described by Cokol et al.. Briefly, each isolate was prepared by picking colonies from an overnight culture in SBD at 37 °C and suspended in a sterile normal saline PBS buffer. The fungal inoculum was adjusted to 0.5 MacFarland and the inoculum was adjusted to 0.5–2.5 × 10^3 CFU/mL. The drug-peptide combinations were formed over a range of concentrations: 0 (control) and 0.06 to 2 times the MIC [51]. The fractional inhibitory concentration index (FICI) was calculated as follows:
(§4) FICI=CML peptide in combination/CMI peptide alone+CML FLC in combination/CMI FLC alone
(§5) The calculated FICI was reported as synergy with values FICI ≤ 0.5, additive FICI > 0.5–1, indifference FICI > 1–4, and antagonism FICI ≥ 4 [52].
(§6) A synergistic effect was considered to be when the effect of the combination exceeded the effects of the individual components. An additive effect was when the effect of the combination was equal to the sum of the effects of the individual components.

C. auris 001 HUSI-PUJ = format: cell-based
Procedure: as §3, §4, §5, §6

C. auris 537 HUSI-PUJ = format: cell-based
Procedure: as §3, §4, §5, §6

C. glabrata 1875 CHU-PUJ = format: cell-based
Procedure: as §3, §4, §5, §6

C. glabrata ATCC 2001 = format: cell-based
Procedure: as §3, §4, §5, §6

C. auris 001 = format: cell-based; conditions: 001, 48 h
Procedure: as §1

C. auris 537 = format: cell-based; conditions: 537, 48 h
Procedure: as §1

C. glabrata 1875 = format: cell-based; conditions: 1875, 48 h
Procedure: as §1

C. albicans ATCC SC5314 [4] = format: cell-based, Candida albicans; remark: listed apart in the source
Procedure: as §3, §4, §5, §6

E. coli = conditions: reported; cited from earlier work
From the text: LfcinB (20–25): RRWQWR is the shortest sequence derived from LfcinB with antibacterial, antifungal, and anticancer activity. In similar way, Buforin II (BFII) is an antimicrobial peptide with activity against Gram-positive and Gram-negative bacteria as well as fungi. Palindromic sequences have been designed from the 4-residue motif (RLLR) of Buforin II, and their antibacterial activity has been evaluated against Gram-negative and Gram-positive strains. The palindrome [RLLR]5: […] was reported to have an MIC of 0.7 µM against E. coli. Chimeras containing the minimum motif RRWQW ...

[5] = FLC-resistant clinical isolate, broth microdilution CLSI M27-A3, 37 °C, ≥50% decrease vs growth control, n = 3
[6] = FLC-sensitive reference strain, broth microdilution CLSI M27-A3, 37 °C, 48 h, ≥50% decrease vs growth control, n = 3
[7] = fungistatic = growth inhibition >70% for 48 h
[8] = time-kill curve, peptide at 12.5 µg/mL (4 µM)
[9] = checkerboard run with C6, unit from footnote of Table 4

Compound	MFC (C. albicans 256 HUSI-PUJ [1]; 256 HUSI-PUJ)	MFC (C. albicans ATCC SC5314 [2]; ATCC SC5314, 24 h)	Inhibition of growth (C. albicans 256)	Inhibition of growth (C. albicans SC5314)	Hemolytic effect (human red blood cells)	MIC (C. albicans 256 HUSI-PUJ [1]; 256 HUSI-PUJ)	MIC (C. albicans ATCC SC5314 [2]; ATCC SC5314, 48 h)	MICa: MIC of the chimeric peptide alone (C. albicans 256 HUSI-PUJ [3])	MIC (C. albicans 256 HUSI-PUJ [1]; [5])	MIC (C. albicans ATCC SC5314 [2]; [6])	other results
CC(C)C[C@H](NC(=O)[C@H](CC(C)C)NC(=O)[C@H](CCCCN)NC(=O)[C@H](CCCCN)NC(=O)[C@H](CC(C)C)NC(=O)[C@H](CC(C)C)NC(=O)[C@H](CCCCN)NC(=O)CCCCCNC(=O)[C@H](CCCNC(=N)N)NC(=O)[C@H](Cc1c[nH]c2ccccc12)NC(=O)[C@H](CCC(N)=O)NC(=O)[C@H](Cc1c[nH]c2ccccc12)NC(=O)[C@H](CCCNC(=N)N)NC(=O)[C@@H](N)CCCNC(=N)N)C(=O)N[C@@H](CCCCN)C(N)=O [C5] (H-RRWQWR[Ahx]KLLKKLLK-NH2)	97 µM	97 µM	more than 90%	more than 90%	2–4%						
CC(C)C[C@H](NC(=O)[C@H](CC(C)C)NC(=O)[C@H](CCCNC(=N)N)NC(=O)[C@H](CCCNC(=N)N)NC(=O)[C@H](CC(C)C)NC(=O)[C@H](CC(C)C)NC(=O)[C@H](CCCNC(=N)N)NC(=O)CCCCCNC(=O)[C@H](CCCCN)NC(=O)[C@H](Cc1c[nH]c2ccccc12)NC(=O)[C@H](CCC(N)=O)NC(=O)[C@H](Cc1c[nH]c2ccccc12)NC(=O)[C@H](CCCCN)NC(=O)[C@@H](N)CCCCN)C(=O)N[C@@H](CCCNC(=N)N)C(N)=O [C6] (H-KKWQWK[Ahx]RLLRRLLR-NH2)	48 µM	48 µM	more than 90%	more than 90%	2–4%	24 µM	24 µM	100 µg/mL			MICa: MIC of the chimeric peptide alone (C. auris 001 HUSI-PUJ; 001 HUSI-PUJ): 400 µg/mL; MICa: MIC of the chimeric peptide alone (C. auris 537 HUSI-PUJ; 537 HUSI-PUJ): 400 µg/mL; MICa: MIC of the chimeric peptide alone (C. glabrata 1875 CHU-PUJ; 1875 CHU-PUJ): 400 µg/mL; MICa: MIC of the chimeric peptide alone (C. glabrata ATCC 2001; ATCC 2001): 100 µg/mL; MIC (C. auris 001): 96 µM (≈ 201 µg/mL); MIC (C. auris 537): 96 µM (≈ 201 µg/mL); MIC (C. glabrata 1875): 96 µM (≈ 201 µg/mL)
CC(C)C[C@H](NC(=O)[C@H](CC(C)C)NC(=O)[C@H](CCCNC(=N)N)NC(=O)[C@H](CCCNC(=N)N)NC(=O)[C@H](CC(C)C)NC(=O)[C@H](CC(C)C)NC(=O)[C@H](CCCNC(=N)N)NC(=O)CCCCCNC(=O)[C@H](CCCCNC(=O)[C@H](CCCNC(=N)N)NC(=O)[C@H](Cc1c[nH]c2ccccc12)NC(=O)[C@H](CCC(N)=O)NC(=O)[C@H](Cc1c[nH]c2ccccc12)NC(=O)[C@H](CCCNC(=N)N)NC(=O)[C@@H](N)CCCNC(=N)N)NC(=O)[C@H](CCCNC(=N)N)NC(=O)[C@H](Cc1c[nH]c2ccccc12)NC(=O)[C@H](CCC(N)=O)NC(=O)[C@H](Cc1c[nH]c2ccccc12)NC(=O)[C@H](CCCNC(=N)N)NC(=O)[C@@H](N)CCCNC(=N)N)C(=O)N[C@@H](CCCNC(=N)N)C(N)=O [C9] (I: H-RRWQWRK[Ahx]RLLRRLLR-NH2 / II: H-RRWQWR; amide I:7-II:C; N-terminus assumed)	15 µM	15 µM	more than 90%	more than 90%		15 µM	15 µM	50 µg/mL	50 µg/mL	50 µg/mL	MFC (C. albicans 256 HUSI-PUJ [1]; FLC-resistant clinical isolate, aliquots plated on SDA, 37 °C, no growth): 50 µg/mL; MFC (C. albicans ATCC SC5314 [2]; FLC-sensitive reference strain, aliquots plated on SDA, 37 °C, 24 h, no growth): 50 µg/mL; Time-kill result: Fungicide concentration (C. albicans 256; fungicidal = yeast kill ≥99%): 25 µg/mL; Time-kill result: Fungistatic concentration (C. albicans 256; [7]): 13 µg/mL; Time-kill result: Fungicide concentration (C. albicans 256; value in brackets): 8 µM; Time-kill result: Fungistatic concentration (C. albicans 256; value in brackets): 4 µM; Incubation time up to which strain growth was completely inhibited (C. albicans 256; [8]): approximately 20 h; Time-kill result: Fungicide concentration (C. albicans SC5314; fungicidal = yeast kill ≥99%): 25 µg/mL; Time-kill result: Fungistatic concentration (C. albicans SC5314; [7]): 13 µg/mL; Time-kill result: Fungicide concentration (C. albicans SC5314; value in brackets): 8 µM; Time-kill result: Fungistatic concentration (C. albicans SC5314; value in brackets): 4 µM; Incubation time up to which strain growth was completely inhibited (C. albicans SC5314; [8]): approximately 20 h; MICa/A: factor by which the chimera is potentiated in combination (C. albicans 256 HUSI-PUJ [3]; peptide combined with FLC): 2; MICa: MIC of the chimeric peptide alone (C. albicans ATCC SC5314 [4]; ATCC SC5314): 100 µg/mL; Effect of the combination with FLC (by FICI) (C. albicans ATCC SC5314 [4]; checkerboard): synergistic; MICa/A: factor by which the chimera is potentiated in combination (C. albicans ATCC SC5314 [4]; peptide combined with FLC): 4
OC(Cn1cncn1)(Cn1cncn1)c1ccc(F)cc1F [FLC, fluconazole, reference compound]									64 µg/mL	1 µg/mL	MICb: MIC of fluconazole alone (C. auris 001 HUSI-PUJ; [9]): 32 µg/mL; MICb: MIC of fluconazole alone (C. auris 537 HUSI-PUJ; [9]): 64 µg/mL; MICb: MIC of fluconazole alone (C. glabrata 1875 CHU-PUJ; [9]): 4 µg/mL; MICb: MIC of fluconazole alone (C. glabrata ATCC 2001; [9]): 0.3 µg/mL
RLLRRLLRRLLRRLLRRLLR [[RLLR]5, palindrome designed from the RLLR motif of Buforin II]											MIC (E. coli): 0.7 µM
RLLRRRWQWR-NH2 [C3]	131 µM	131 µM			2–4%	66 µM	66 µM				

Source: article PMC9686985, “Chimeric Peptides Derived from Bovine Lactoferricin and Buforin II: Antifungal Activity against Reference Strains and Clinical Isolates of Candida spp” (Antibiotics, 2022)
